Test results: patent US7547513B2, “Mutants of deoxycytidine kinase having extended enzymatic activity” (priority 2001, dated 2009)
In brackets after ≈: the same amount, converted by molar mass.

How the values were obtained:
[1] = tested on: Escherichia coli β7334 Δdeo tdk cdd::Tn10 pSUTrc (dck allele: none); format: cell-based; settings: strain β7334, dck allele none; 18 h 37° C., MS medium + IPTG
Procedure: (§1) The culture was then diluted 100 times in the same medium supplemented with IPTG and distributed on 96-well microplates in a final volume of 100 μl in a series of dilutions from to 2 to 2 nucleotide analogues. Each analogue was tested twice. After incubation for 18 hours at 37° C. with stirring, the MIC was determined as corresponding to the lowest analogue concentration for which no turbidity was detectable.
(§2) The toxicity of nucleoside analogues, deviating either by the sugar or by the base, was evaluated in strains of genotype Δdeo tdk cdd expressing on a plasmid the different dckH alleles, wild-type allele, D133E, R104Q and double mutant.
(§3) The minimum inhibitory concentrations, expressed in microM, were determined as indicated in the section Materials and Methods.

[2] = tested on: Escherichia coli β7338 Δdeo tdk cdd::Tn10 pSUDCK4 (dck:D133E-R104Q); format: cell-based; settings: strain β7338, dck allele D133E R104Q; 18 h 37° C., MS medium + IPTG
Procedure: as §1, §2, §3

[3] = tested on: Escherichia coli β7339 Δdeo tdk cdd::Tn10 (dckH none, amkG wt); assay: microbe, parasite or virus in culture; format: cell-based; settings: strain β7339, dckH none, amkG wt
Procedure: as §1
(§4) We jointly expressed, within the genetic context Δdeo tdk cdd each of the four alleles of dckH with each of the two wt and T39A alleles of amkG, and tested the toxicity of the different nucleoside analogues already tested previously (Table 4 below).
as §3

[4] = tested on: Escherichia coli β7340 Δdeo tdk cdd::Tn10 (dckH wt, amkG wt); assay: microbe, parasite or virus in culture; format: cell-based; settings: strain β7340, dckH wt, amkG wt
Procedure: as §1, §4, §3

[5] = tested on: Escherichia coli β7341 Δdeo tdk cdd::Tn10 (dckH D133E, amkG wt); assay: microbe, parasite or virus in culture; format: cell-based; settings: strain β7341, dckH D133E, amkG wt
Procedure: as §1, §4, §3

[6] = tested on: Escherichia coli β7342 Δdeo tdk cdd::Tn10 (dckH R104Q, amkG wt); assay: microbe, parasite or virus in culture; format: cell-based; settings: strain β7342, dckH R104Q, amkG wt
Procedure: as §1, §4, §3

[7] = tested on: Escherichia coli β7343 Δdeo tdk cdd::Tn10 (dckH D133E R104Q, amkG wt); assay: microbe, parasite or virus in culture; format: cell-based; settings: strain β7343, dckH D133E R104Q, amkG wt
Procedure: as §1, §4, §3

[8] = tested on: Escherichia coli β7344 Δdeo tdk cdd::Tn10 (dckH none, amkG T39A); assay: microbe, parasite or virus in culture; format: cell-based; settings: strain β7344, dckH none, amkG T39A
Procedure: as §1, §4, §3

[9] = tested on: Escherichia coli β7345 Δdeo tdk cdd::Tn10 (dckH wt, amkG T39A); assay: microbe, parasite or virus in culture; format: cell-based; settings: strain β7345, dckH wt, amkG T39A
Procedure: as §1, §4, §3

[10] = tested on: Escherichia coli β7346 Δdeo tdk cdd::Tn10 (dckH D133E, amkG T39A); assay: microbe, parasite or virus in culture; format: cell-based; settings: strain β7346, dckH D133E, amkG T39A
Procedure: as §1, §4, §3

[11] = tested on: Escherichia coli β7347 Δdeo tdk cdd::Tn10 (dckH R104Q, amkG T39A); assay: microbe, parasite or virus in culture; format: cell-based; settings: strain β7347, dckH R104Q, amkG T39A
Procedure: as §1, §4, §3

[12] = tested on: Escherichia coli β7348 Δdeo tdk cdd::Tn10 (dckH D133E R104Q, amkG T39A); assay: microbe, parasite or virus in culture; format: cell-based; settings: strain β7348, dckH D133E R104Q, amkG T39A
Procedure: as §1, §4, §3

[13] = tested on: bacteria of genotype Δdeo tdk p::dckH+ (β7134 cells); assay: Selection of the DCK mutants in vivo (mutagenesis of dck gene by promutagenic nucleosides); format: cell-based, Escherichia coli
Procedure: Selection of the DCK mutants in vivo: a 12-hour culture of the β7134 cells in MS medium supplemented with 50 mg/l of carbenicillin was diluted 100 times in the same medium and cultured with aeration until turbidity of 0.100 (600 nm) was reached. The culture was then diluted 25 times in the same medium with or without IPTG and supplemented with variable concentrations (5 to 30 μM) of the promutagenic nucleoside analogues disoG and disoA then cultured with aeration for 18 hours. The cells were rinsed then plated on MH dishes supplemented with trimethoprim, thymidine and IPTG. Colonies appeared after incubation for 36 hours at 37° C. No colony was obtained in the absence of nucleoside analogue.
We took advantage of the conditional mutating property of DCK in the presence of promutagenic nucleoside analogues in order to subject its own dck gene to an episode of mutagenesis in vivo. Thus, bacteria of genotype Δdeo tdk p::dckH+ were exposed either to 2′-deoxy-iso-adenosine (disoA) or to 2′ deoxy-iso-guanosine (disoG), then incubated on solid rich medium in the presence of trimethoprim and thymidine. Colonies appeared following the administration of the two compounds at a frequency of the order of 10^−8. No colony survived in the absence of promutagenic nucleoside.
These alleles are designated dckH*. A plasmid combining the two mutations in the same allele, dckH**, was constructed and introduced into the strain β7117 of genotype Δdeo tdk. This allowed the complementation of the tdk mutation, thus also expressing a thymidine kinase activity. The different alleles selected are itemized in Table 2 below.

[14] = tested on: Escherichia coli β7336 Δdeo tdk cdd::Tn10 pSUDCK2 (dck:D133E); format: cell-based; settings: strain β7336, dck allele D133E; 18 h 37° C., MS medium + IPTG
Procedure: (§5) The culture was then diluted 100 times in the same medium supplemented with IPTG and distributed on 96-well microplates in a final volume of 100 μl in a series of dilutions from to 2 to 2 nucleotide analogues. Each analogue was tested twice.
as §2, §3

[15] = tested on: Escherichia coli β7337 Δdeo tdk cdd::Tn10 pSUDCK3 (dck:R104Q); format: cell-based; settings: strain β7337, dck allele R104Q; 18 h 37° C., MS medium + IPTG
Procedure: as §5, §2, §3

## Nc1nc(O)nc2c1ncn2[C@H]1C[C@H](O)[C@@H](CO)O1 [disoG, 2-hydroxy-6-amino-9-(2′-deoxy-β-D-ribofuranosyl)purine]
[1]
  minimum inhibitory concentration (MIC): > (no toxicity could be detected at the highest analogue concentration, 1.28 mM)
[2]
  minimum inhibitory concentration (MIC): > (no toxicity could be detected at the highest analogue concentration, 1.28 mM)
[3]
  minimum inhibitory concentration (MIC): > (no toxicity could be detected at the highest analogue concentration, 1280 microM)
[4]
  minimum inhibitory concentration (MIC): > (no toxicity could be detected at the highest analogue concentration, 1280 microM)
[5]
  minimum inhibitory concentration (MIC): > (no toxicity could be detected at the highest analogue concentration, 1280 microM)
[6]
  minimum inhibitory concentration (MIC): > (no toxicity could be detected at the highest analogue concentration, 1280 microM)
[7]
  minimum inhibitory concentration (MIC): > (no toxicity could be detected at the highest analogue concentration, 1280 microM)
[8]
  minimum inhibitory concentration (MIC): > (no toxicity could be detected at the highest analogue concentration, 1280 microM)
[9]
  minimum inhibitory concentration (MIC): > (no toxicity could be detected at the highest analogue concentration, 1280 microM)
[10]
  minimum inhibitory concentration (MIC): > (no toxicity could be detected at the highest analogue concentration, 1280 microM)
[11]
  minimum inhibitory concentration (MIC): > (no toxicity could be detected at the highest analogue concentration, 1280 microM)
[12]
  minimum inhibitory concentration (MIC): > (no toxicity could be detected at the highest analogue concentration, 1280 microM)
[13]; no colony in the absence of promutagenic nucleoside
  frequency of colonies on solid rich medium with trimethoprim and thymidine after exposure: ~10^−8
[13]; sequenced mutant plasmids obtained independently
  Frequency of mutation detected C → A, codon 133 GAC, Asp → Glu: 4/4

## NNc1ccn([C@H]2C[C@H](O)[C@@H](CO)O2)c(=O)n1 [amino-dC, N4-amino-2′-deoxycitidine]
[1]
  minimum inhibitory concentration (MIC): > (no toxicity could be detected at the highest analogue concentration, 1.28 mM)
[2]
  minimum inhibitory concentration (MIC): 20 µM
[14]
  minimum inhibitory concentration (MIC): 20 µM
[15]
  minimum inhibitory concentration (MIC): 2.5 µM
[3]
  minimum inhibitory concentration (MIC): > (no toxicity could be detected at the highest analogue concentration, 1280 microM)
[4]
  minimum inhibitory concentration (MIC): 80 µM (≈ 19.4 µg/mL)
[5]
  minimum inhibitory concentration (MIC): > (no toxicity could be detected at the highest analogue concentration, 1280 microM)
[6]
  minimum inhibitory concentration (MIC): ≦1.25 microM
[7]
  minimum inhibitory concentration (MIC): 80 µM (≈ 19.4 µg/mL)
[8]
  minimum inhibitory concentration (MIC): > (no toxicity could be detected at the highest analogue concentration, 1280 microM)
[9]
  minimum inhibitory concentration (MIC): > (no toxicity could be detected at the highest analogue concentration, 1280 microM)
[10]
  minimum inhibitory concentration (MIC): 640 µM (≈ 155 µg/mL)
[11]
  minimum inhibitory concentration (MIC): 5 µM (≈ 1.21 µg/mL)
[12]
  minimum inhibitory concentration (MIC): 320 µM (≈ 77.5 µg/mL)
